Among the data in patent US9540343B2 (Gilead Sciences, Inc., priority 2011, dated 2017) are CC50 and inhibition values, retold here.

A short description of one data set: in vitro. The essentials:
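Cytoprotection read-out: CellTiter-Glo chemiluminescence after 5 days at 37 °C of HIV-IIIb-infected MT-4 cells (m.o.i. 0.003) with compound in 10-point 3-fold dilutions, quadruplicate, 10% FBS. Cytotoxicity (CC50) measured identically without virus.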

For a further data set, the system named is HIV-IIIb. Kind of data set: Test A: Antiviral assay in MT4 cells. The settings on record: Human immunodeficiency virus 1, IIIB, MT4, 120 h, read-out: % inhibition at 2 μM, percent inhibition of virus-induced cell killing, from dose response curve at 2 uM drug; MT-4 cells infected with HIV-IIIb, 5 days, CellTiter-Glo. The format is cell-based, HIV-1. (ATP-based viability assays read luminescence as a measure of living cells.)

Where [1] appears, read: human, uninfected MT-4 cells, CC50 (nM), same protocol as Test A, CellTiter-Glo.

For the compound `Cc1ccc2c(ccn2CC(=O)N[C@@H](Cc2cc(F)cc(F)c2)c2ncccc2-c2ccc(F)c(C(N)=O)c2)c1` [Example 547, (S)-5-(2-(2-(3,5-difluorophenyl)-1-(2-(5-methyl-1H-indol-1-yl)acetamido)ethyl)pyridin-3-yl)-2-fluorobenzamide], in “in vitro” (setting [1]), the CC50 (in general, the concentration that lowers cell viability or growth by half) at 5 days turned out to be 13300 nM. For the same compound, the inhibition (in general, the drop in the measured response relative to a control, in per cent) at 2 µM with HIV-IIIb came to 45%.
`O=C1Cc2cc(-c3cccnc3[C@H](Cc3cc(F)cc(F)c3)NC(=O)Cn3nc(C(F)F)c4c3C(F)(F)CCC4(F)F)ccc2N1` [Example 548D, (S)-2-(3-(difluoromethyl)-4,4,7,7-tetrafluoro-4,5,6,7-tetrahydro-1H-indazol-1-yl)-N-(2-(3,5-difluorophenyl)-1-(3-(2-oxoindolin-5-yl)pyridin-2-yl)ethyl)acetamide] gave a CC50 at 5 days in the data set “in vitro” (setting [1]) of 10100 nM. In the data set on HIV-IIIb, the inhibition at 2 µM is 54%.
The matching figures for `NCc1ccc2c(CC(=O)N[C@@H](Cc3cc(F)cc(F)c3)c3ncccc3-c3ccc(Cl)cc3)c[nH]c2c1` [Example 549, (S)-2-(6-(aminomethyl)-1H-indol-3-yl)-N-(1-(3-(4-chlorophenyl)pyridin-2-yl)-2-(3,5-difluorophenyl)ethyl)acetamide]: 10200 nM and 38%.
In the data set “in vitro” (setting [1]), `NC(=O)c1cc(-c2cccnc2[C@H](Cc2cc(F)cc(F)c2)NC(=O)Cn2ncc3c(Cl)cc(Cl)cc32)ccc1F` [Example 550, (S)-5-(2-(1-(2-(4,6-dichloro-1H-indazol-1-yl)acetamido)-2-(3,5-difluorophenyl)ethyl)pyridin-3-yl)-2-fluorobenzamide] came in with a CC50 at 5 days of 17000 nM. For the same compound, the inhibition at 2 µM with HIV-IIIb was 1%.
On to `NC(=O)c1cc(-c2cccnc2[C@H](Cc2cc(F)cc(F)c2)NC(=O)Cn2nc(C(F)(F)F)c3c2C(=O)CC3(F)F)ccc1F` [Example 551, (S)-5-(2-(1-(2-(4,4-difluoro-6-oxo-3-(trifluoromethyl)-5,6-dihydrocyclopenta[c]pyrazol-1(4H)-yl)acetamido)-2-(3,5-difluorophenyl)ethyl)pyridin-3-yl)-2-fluorobenzamide], for which the CC50 at 5 days in the data set “in vitro” (setting [1]) was > 53200 nM. Further, in the data set with HIV-IIIb, the inhibition at 2 µM was 0%.
In the data set “in vitro” (setting [1]), `C=Cc1c(C(F)F)nn(CC(=O)N[C@@H](Cc2cc(F)cc(F)c2)c2ncccc2-c2ccc(F)c(C(N)=O)c2)c1C(F)F` [Example 553, (S)-5-(2-(1-(2-(3,5-bis(difluoromethyl)-4-vinyl-1H-pyrazol-1-yl)acetamido)-2-(3,5-difluorophenyl)ethyl)pyridin-3-yl)-2-fluorobenzamide] registered a CC50 at 5 days of 23800 nM. Further, the inhibition at 2 µM in the data set on HIV-IIIb came out at 11%.
For `NC(=O)c1cc(-c2cccnc2[C@H](Cc2cc(F)cc(F)c2)NC(=O)Cn2nc(C(F)F)c(Br)c2C(F)F)ccc1F` [Example 555C, (S)-5-(2-(1-(2-(4-bromo-3,5-bis(difluoromethyl)-1H-pyrazol-1-yl)acetamido)-2-(3,5-difluorophenyl)ethyl)pyridin-3-yl)-2-fluorobenzamide], in “in vitro” (setting [1]), half-maximal cytotoxicity (CC50 at 5 days) was put at 25500 nM. Besides, the inhibition at 2 µM with HIV-IIIb is 14%.
As for `NCc1ccc2[nH]cc(CC(=O)N[C@@H](Cc3cc(F)cc(F)c3)c3ncccc3-c3cccc(C(N)=O)c3)c2c1` [Example 556, (S)-3-(2-(1-(2-(5-(aminomethyl)-1H-indol-3-yl)acetamido)-2-(3,5-difluorophenyl)ethyl)pyridin-3-yl)benzamide], the CC50 at 5 days in the data set “in vitro” (setting [1]) amounted to 47800 nM. For the same compound, the inhibition at 2 µM in the data set with HIV-IIIb came out at 83%.
Consider `CC(C)(C)OC(=O)NCc1ccc2[nH]cc(CC(=O)N[C@@H](Cc3cc(F)cc(F)c3)c3ncccc3-c3ccc(Cl)cc3)c2c1` [Example 557, (S)-tert-butyl (3-(2-(1-(3-(4-chlorophenyl)pyridin-2-yl)-2-(3,5-difluorophenyl)ethylamino)-2-oxoethyl)-1H-indol-5-yl)methylcarbamate], for which the midpoint of cytotoxicity in the data set “in vitro” (setting [1]), the CC50 at 5 days, lay at 7860 nM. For the same compound, the inhibition at 2 µM in the data set on HIV-IIIb came to 73%.
`O=C(Cn1nc(C(F)F)c2c1C(F)(F)CCC2(F)F)N[C@@H](Cc1cc(F)cc(F)c1)c1ncccc1-c1ccc2cc[nH]c(=O)c2c1` [Example 559D, (S)-2-(3-(difluoromethyl)-4,4,7,7-tetrafluoro-4,5,6,7-tetrahydro-1H-indazol-1-yl)-N-(2-(3,5-difluorophenyl)-1-(3-(1-oxo-1,2-dihydroisoquinolin-7-yl)pyridin-2-yl)ethyl)acetamide] showed a CC50 at 5 days in “in vitro” (setting [1]) of 23100 nM. Also, the inhibition at 2 µM with HIV-IIIb came out at 96%.
`NC(=O)c1cccc(-c2cccnc2[C@H](Cc2cc(F)cc(F)c2)NC(=O)Cc2c[nH]c3ccc(N)cc23)c1` [Example 560, (S)-3-(2-(1-(2-(5-amino-1H-indol-3-yl)acetamido)-2-(3,5-difluorophenyl)ethyl)pyridin-3-yl)benzamide]: the CC50 at 5 days in “in vitro” (setting [1]) is > 53000 nM. The inhibition at 2 µM in the data set on HIV-IIIb came out at 112%.
In the data set “in vitro” (setting [1]), `NC(=O)c1cc(-c2cccnc2[C@H](Cc2cc(F)cc(F)c2)NC(=O)Cn2nc(C(F)(F)F)c3c2C(=O)C2CC32)ccc1F` (stereo partly drawn) [Example 561B, 5-(2-((1S)-2-(3,5-difluorophenyl)-1-(2-(5-oxo-3-(trifluoromethyl)-3b,4,4a,5-tetrahydro-1H-cyclopropa[3,4]cyclopenta[1,2-c]pyrazol-1-yl)acetamido)ethyl)pyridin-3-yl)-2-fluorobenzamide] gave a CC50 at 5 days of 29000 nM. The inhibition at 2 µM in the data set on HIV-IIIb worked out at 8%.
In the case of `NC(=O)c1cc(-c2cccnc2[C@H](Cc2cc(F)cc(F)c2)NC(=O)Cn2c3c(c4ccccc42)CCCC3)ccc1F` [Example 563, (S)-5-(2-(2-(3,5-difluorophenyl)-1-(2-(3,4-dihydro-1H-carbazol-9(2H)-yl)acetamido)ethyl)pyridin-3-yl)-2-fluorobenzamide], it took 27000 nM to reach half-maximal cytotoxicity in “in vitro” (setting [1]) (CC50 at 5 days). In addition, the inhibition at 2 µM in the data set with HIV-IIIb worked out at 62%.
Regarding `Cc1cc2ncn(CC(=O)N[C@@H](Cc3cc(F)cc(F)c3)c3ncccc3-c3ccc(F)c(C(N)=O)c3)c2cc1C` [Example 564, (S)-5-(2-(2-(3,5-difluorophenyl)-1-(2-(5,6-dimethyl-1H-benzo[d]imidazol-1-yl)acetamido)ethyl)pyridin-3-yl)-2-fluorobenzamide], half-maximal cytotoxicity in “in vitro” (setting [1]) (CC50 at 5 days) was put at 10300 nM. For the same compound, the inhibition at 2 µM in the data set on HIV-IIIb was determined as 100%.
The matching figures for `NC(=O)c1cc(-c2cccnc2[C@H](Cc2cc(F)cc(F)c2)NC(=O)Cn2c(=O)n(C3=CCCCC3)c3ccccc32)ccc1F` [Example 567, (S)-5-(2-(1-(2-(3-cyclohexenyl-2-oxo-2,3-dihydro-1H-benzo[d]imidazol-1-yl)acetamido)-2-(3,5-difluorophenyl)ethyl)pyridin-3-yl)-2-fluorobenzamide]: 15800 nM and 11%.
Regarding `NC(=O)c1cc(-c2cccnc2[C@H](Cc2cc(F)cc(F)c2)NC(=O)Cn2ccc3cc(F)c(Cl)cc32)ccc1F` [Example 568, (S)-5-(2-(1-(2-(6-chloro-5-fluoro-1H-indol-1-yl)acetamido)-2-(3,5-difluorophenyl)ethyl)pyridin-3-yl)-2-fluorobenzamide], half-maximal cytotoxicity in “in vitro” (setting [1]) (CC50 at 5 days) was put at 11400 nM. Moreover, the inhibition at 2 µM with HIV-IIIb amounted to 42%.
The matching figures for `NC(=O)c1cccc(-c2cccnc2[C@H](Cc2cc(F)cc(F)c2)NC(=O)Cc2ccccn2)c1` [Example 569, (S)-3-(2-(2-(3,5-difluorophenyl)-1-(2-(pyridin-2-yl)acetamido)ethyl)pyridin-3-yl)benzamide]: > 53000 nM and 11%.
Turning to `NC(=O)c1cc(-c2cccnc2[C@H](Cc2cc(F)cc(F)c2)NC(=O)Cn2cc(C(F)(F)F)cn2)ccc1F` [Example 570, (S)-5-(2-(2-(3,5-difluorophenyl)-1-(2-(4-(trifluoromethyl)-1H-pyrazol-1-yl)acetamido)ethyl)pyridin-3-yl)-2-fluorobenzamide], the CC50 at 5 days in the data set “in vitro” (setting [1]) is > 53200 nM. Moreover, the inhibition at 2 µM with HIV-IIIb is 5%.
For the compound `NC(=O)c1cc(-c2cccnc2[C@H](Cc2cc(F)cc(F)c2)NC(=O)Cn2c3c(c4ccccc42)C(=O)CCC3)ccc1F` [Example 574D, (S)-5-(2-(2-(3,5-difluorophenyl)-1-(2-(4-oxo-3,4-dihydro-1H-carbazol-9(2H)-yl)acetamido)ethyl)pyridin-3-yl)-2-fluorobenzamide], the CC50 at 5 days in the data set “in vitro” (human, CC50 (nM), uninfected MT-4 cells, same protocol as Test A, CellTiter-Glo) was 52500 nM. The inhibition at 2 µM in the data set on HIV-IIIb was 24%.
As for `Cc1cc2cc(F)ccc2n1CC(=O)N[C@@H](Cc1cc(F)cc(F)c1)c1ncccc1-c1cccc(C(N)=O)c1` [Example 575B, (S)-3-(2-(2-(3,5-difluorophenyl)-1-(2-(5-fluoro-2-methyl-1H-indol-1-yl)acetamido)ethyl)pyridin-3-yl)benzamide], the CC50 at 5 days in “in vitro” (setting [1]) stood at 17400 nM. Besides, the inhibition at 2 µM in the data set on HIV-IIIb amounted to 14%.
Take `COC1CN(C(=O)c2cc(C(C)C)n(CC(=O)N[C@@H](Cc3cc(F)cc(F)c3)c3ncccc3-c3ccc(F)c(C(N)=O)c3)n2)C1` [Example 576B, (S)-5-(2-(2-(3,5-difluorophenyl)-1-(2-(5-isopropyl-3-(3-methoxyazetidine-1-carbonyl)-1H-pyrazol-1-yl)acetamido)ethyl)pyridin-3-yl)-2-fluorobenzamide]: the CC50 at 5 days in “in vitro” (setting [1]) is > 53200 nM. In the data set with HIV-IIIb, the inhibition at 2 µM amounted to 2%.
For `NC(=O)c1cc(-c2cccnc2[C@H](Cc2cc(F)cc(F)c2)NC(=O)Cn2c(CN3CCOCC3)nc3ccccc32)ccc1F` [Example 577, (S)-5-(2-(2-(3,5-difluorophenyl)-1-(2-(2-(morpholinomethyl)-1H-benzo[d]imidazol-1-yl)acetamido)ethyl)pyridin-3-yl)-2-fluorobenzamide], in “in vitro” (setting [1]), the 50% cytotoxic concentration (CC50) at 5 days is > 53200 nM. Also, the inhibition at 2 µM with HIV-IIIb was determined as 20%.
In the case of `NC(=O)c1cc(-c2cccnc2[C@H](Cc2cc(F)cc(F)c2)NC(=O)C(CO)c2ccccc2)ccc1F` (stereo partly drawn) [Example 578, 5-(2-((1S)-2-(3,5-difluorophenyl)-1-(3-hydroxy-2-phenylpropanamido)ethyl)pyridin-3-yl)-2-fluorobenzamide], the CC50 at 5 days in the data set “in vitro” (setting [1]) is > 53200 nM. Further, the inhibition at 2 µM in the data set on HIV-IIIb was determined as 15%.
